Like-named read-outs stand apart in the source and are kept apart here.
What was measured:
PPAR delta = molecular target: T1, PPAR delta (Homo sapiens, UniProt Q03181); experiment: PPAR delta transactivation assay in COS-1 cells; type: cell-based; set-up: Fold activation of PPAR delta: dose or concentration left out as unconfirmed; details: for Fold activation of PPAR delta: mean±SD n=3; for Inhibition of activation of PPAR delta (by a factor of): transactivation assay
T1 construct: 25 ng of vector DNA carrying PPAR alpha, delta or gamma; expressed in transfected cells; host or cells: COS-1 (African green monkey kidney cells)
T1 sequence (Q03181 1-441): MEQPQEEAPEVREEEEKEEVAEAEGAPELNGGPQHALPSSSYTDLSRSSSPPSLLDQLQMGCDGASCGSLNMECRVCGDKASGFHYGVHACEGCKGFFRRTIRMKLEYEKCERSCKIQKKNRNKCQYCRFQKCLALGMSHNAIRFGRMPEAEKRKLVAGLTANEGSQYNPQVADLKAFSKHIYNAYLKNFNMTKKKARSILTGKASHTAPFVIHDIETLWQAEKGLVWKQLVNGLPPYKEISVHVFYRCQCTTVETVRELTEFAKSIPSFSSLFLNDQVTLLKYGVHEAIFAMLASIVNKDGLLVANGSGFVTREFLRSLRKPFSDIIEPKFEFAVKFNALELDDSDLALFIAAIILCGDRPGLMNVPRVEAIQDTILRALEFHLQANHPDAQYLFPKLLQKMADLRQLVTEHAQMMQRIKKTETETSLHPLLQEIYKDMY

[1] = tested on: MCF7 cells (human breast cancer-derived); experiment: SRB growth inhibition assay, MCF7 cells; type: cell-based; details: 48 hours exposure
Experimental: (§1) The effect of perfluorinated compounds on the inhibition of tumour cell growth was assessed iii vitro using three human tumour-derived cell lines. Cancer cell lines were tested using the sulphorhodamine B (SRB) assay (which measures cellular protein and is directly related to cell number), which is utilised by the […] to screen anti-cancer agents.
(§2) HT-29 cells (human colon tumour-derived), MCF7 cells (human breast cancer-derived) and PC3 cells (human prostate cancer-derived) were harvested and diluted (to 5×10^4 cells per ml, 1×10^5 cells per ml and 7.5×10^4 cells per ml respectively) in RPMI 1640 medium containing 5% FBS, 2 mM glutamine and. 50 μg/ml gentamicin. 100 μl of cell suspension per well was added to 96 well plates and allowed to attach overnight. Cells were exposed to test compounds dissolved in DMSO in 100 μl of medium to give final drug concentrations of 0, 0.3, 1, 3, 10, 30, 100, 300, 1000 and 3000 μM (and DMSO at 0.25%). (n=6 for each drug concentration). After 48 hours, cells were fixed in 10% trichloroacetic acid (TCA) at 4° C. for 1-2 hours then washed using water and subsequently air-dried. 100 μl SRB solution (0.4%) in 1% Acetic Acid was added to each well, and plates were incubated at room temperature for 10 minutes. Unbound dye was removed by washing with 1% acetic acid. Plates were air-dried and bound stain was solubilised in 10 mM Tris base and the absorbance read at 520 nm.

[2] = Plasma levels of PFOA after 11 days oral dosing in SD rats (LC/MS/MS); type: in vivo, rat; details: 25 mg/kg oral daily for 11 days, 24 hours after final administration
Experimental: The study consisted of one control group of 8 male CD Sprague Dawley rats (8-10-weeks old; obtained from Harlan, UK) and 4 test groups that contained 4 rats. Animals received powdered RM1 diet ad libitum for the duration of the study. […] All chemicals were dissolved in Mazola corn oil (at 2.5 mg/ml) and test compounds were administered at 10 ml/kg bodyweight. Control animal received Mazola corn oil only. All animals were sacrificed after 11 days. Animals were killed by exposure to rising concentrations of CO2, and blood was harvested into lithium/heparin tubes for plasma.
Rat plasma samples were denatured by adding acetonitrile, and the amount of perfluorooctanoic acid (PFOA) present was determined by LC/MS/MS.

[3] = tested on: HT-29 cells (human colon tumour-derived); experiment: SRB growth inhibition assay, HT-29 cells; type: cell-based; details: 48 hours exposure
Experimental: as §1, §2

[4] = tested on: three human tumour-derived cell lines (HT-29, MCF7, PC3); experiment: SRB growth inhibition, summary over the three human tumour cell lines; type: cell-based; details: over HT-29, MCF7 and PC3
Experimental: as §1, §2

[5] = 7-day oral gavage study, metabolic parameters, body weight and food consumption in CR SD rats; type: in vivo, rat; details: for Cholesterol (plasma) / Glucose (plasma) / Insulin (plasma) / Triglycerides (plasma): n=5; for Bodyweight change: continued till end of treatment
Experimental: Two groups (n=5) of CR SD rats (approximately 300 g) were treated with 2 dose levels of perfluorinated compounds (15 and 25 mg/kg/day body weight). Animals were administered test substances, dissolved in corn oil, by oral gavage, daily for 7 days. One group of 20 CR SD rays was also treated with vehicle (corn oil) alone. Body weight and food consumption were monitored daily.
Twenty-four hours after the last dose the animals were killed by an increasing concentration of carbon dioxide. Blood was collected by cardiac puncture and plasma was prepared and stored at −70° C. until analysed.
Plasma was analysed for triglycerides, cholesterol, and glucose, using kits purchased from Sigma. Concentrations of plasma insulin were determined using a commercially available enzyme-immunoassay-based kit from Amersham Biosciences. All assays were carried out as specified by the manufacturer.

PPAR gamma = molecular target: T2, PPAR gamma (Homo sapiens, UniProt P37231); experiment: PPAR gamma transactivation assay in COS-1 cells; type: cell-based
T2 construct: 25 ng of vector DNA carrying PPAR alpha, delta or gamma; expressed in transfected cells; host or cells: COS-1 (African green monkey kidney cells)
T2 sequence (P37231 1-505): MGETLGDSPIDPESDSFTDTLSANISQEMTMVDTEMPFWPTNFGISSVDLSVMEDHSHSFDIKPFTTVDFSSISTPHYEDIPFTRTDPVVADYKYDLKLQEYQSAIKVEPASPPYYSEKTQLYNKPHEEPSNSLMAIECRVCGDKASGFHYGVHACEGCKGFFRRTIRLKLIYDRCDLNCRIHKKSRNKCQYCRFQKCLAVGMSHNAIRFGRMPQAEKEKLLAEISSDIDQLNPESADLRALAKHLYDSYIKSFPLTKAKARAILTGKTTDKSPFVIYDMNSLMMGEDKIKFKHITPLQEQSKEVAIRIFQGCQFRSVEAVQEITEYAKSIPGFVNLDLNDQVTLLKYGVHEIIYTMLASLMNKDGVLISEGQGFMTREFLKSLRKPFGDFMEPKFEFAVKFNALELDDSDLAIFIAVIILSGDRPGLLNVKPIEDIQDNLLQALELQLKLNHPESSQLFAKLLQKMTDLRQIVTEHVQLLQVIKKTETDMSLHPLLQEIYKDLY

[6] = tested on: PC3 cells (human prostate cancer-derived); experiment: SRB growth inhibition assay, PC3 cells; type: cell-based
Experimental: as §1, §2

[7] = molecular target: T3, human PPAR-alpha ligand binding domain (Homo sapiens, UniProt Q07869); experiment: PPAR alpha ligand binding (displacement of DAUDA); details: for Kd: DAUDA displacement
T3 sequence (Q07869 179-468): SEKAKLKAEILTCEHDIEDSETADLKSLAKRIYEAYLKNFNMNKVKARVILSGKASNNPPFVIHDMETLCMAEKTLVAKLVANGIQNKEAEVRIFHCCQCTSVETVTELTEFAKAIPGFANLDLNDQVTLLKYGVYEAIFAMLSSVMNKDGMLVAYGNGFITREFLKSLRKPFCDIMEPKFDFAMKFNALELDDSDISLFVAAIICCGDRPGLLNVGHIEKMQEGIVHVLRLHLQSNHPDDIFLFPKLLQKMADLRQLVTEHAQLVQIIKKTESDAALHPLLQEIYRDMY

[8] = molecular target: T4, human PPAR-gamma ligand binding domain (Homo sapiens, UniProt P37231); experiment: PPAR gamma ligand binding (displacement of cis-parinaric acid)
T4 sequence (P37231 202-505): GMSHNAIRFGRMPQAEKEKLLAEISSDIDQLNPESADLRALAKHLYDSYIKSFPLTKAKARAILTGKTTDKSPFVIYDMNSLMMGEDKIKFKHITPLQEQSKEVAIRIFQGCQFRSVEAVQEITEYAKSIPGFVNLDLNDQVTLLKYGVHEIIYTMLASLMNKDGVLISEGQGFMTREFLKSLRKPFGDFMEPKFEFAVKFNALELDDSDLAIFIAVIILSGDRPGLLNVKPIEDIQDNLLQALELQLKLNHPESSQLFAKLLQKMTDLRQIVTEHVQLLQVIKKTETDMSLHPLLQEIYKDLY

[9] = 21-day diet study, bodyweights of SD rats; type: in vivo, rat; details: 300 ppm in diet, 21 days
Experimental: This experiment investigated the effect of compounds of different % linearity on body weight over a longer study period.
The diet study consisted of one control group of 4 male animals and 4 test groups of 4 male animals (as specified earlier in this Example). Animals received powdered RM1 diet alone, or RM1 diet containing 300 ppm XEN1001 or XEN1002, ad libitum for the duration of the study. Bodyweights were measured daily for 21 days.

[10] = 15 mg/kg/day oral gavage 7 days
[11] = 25 mg/kg/day oral gavage 7 days
[12] = Homo sapiens, PC-3, 48 hours exposure
[13] = at 10 μM (maximal activation by test compound), value in parenthesis = positive control at 10 μM

| Compound | Fold activation of PPAR delta (PPAR delta) | IC50 ([1]; Homo sapiens, MCF7, 48 h) | Plasma concentration of PFOA (free acid) [2] | IC50 ([3]; Homo sapiens, HT-29, 48 h) | IC50 ([4]; Homo sapiens) | Cholesterol (plasma) [5, 10] | Glucose (plasma) [5, 10] | Insulin (plasma) [5, 10] | Triglycerides (plasma) [5, 10] | Plasma insulin, % of control values ([5]; 25 mg/kg) | Cholesterol (plasma) [5, 11] | Glucose (plasma) [5, 11] | Insulin (plasma) [5, 11] | Triglycerides (plasma) [5, 11] | Bodyweight change ([5]; 15 and 25 mg/kg/day) | Fold activation of PPAR gamma (PPAR gamma; at 1 mM, mean±SD n=3) | IC50 [6, 12] | Inhibition of activation of PPAR delta (by a factor of) (PPAR delta) | Reduction in binding affinity for PPAR alpha compared to PFOA [7] | Kd [8] | also measured |
| --- | --- | --- | --- | --- | --- | --- | --- | --- | --- | --- | --- | --- | --- | --- | --- | --- | --- | --- | --- | --- | --- |
| COC(=O)C(F)(F)C(F)(F)C(F)(F)C(F)(F)C(F)(F)C(F)(F)C(F)(F)F [MPOA, Methyl perfluorooctanoate] | 1.51 ± 0.31 fold | > 2.79 mM | equimolar concentrations of PFOA | > 3 mM | ~3 mM | 1.17 ± 0.31 mmol/L | 11.48 ± 1.27 mmol/L | 4.87 ± 2.611 ng/mL | 0.28 ± 0.08 mmol/L | 15.6% | 0.73 ± 0.23 mmol/L | 12.99 ± 2.07 mmol/L | 28.74 ± 17.22 ng/mL | 0.6 ± 0.89 mmol/L | lost bodyweight after day 3 | 2.92 ± 0.12 fold | > 3 mM | – | – | – | Plasma insulin, % of control values ([5]; 15 mg/kg): 2.6%; Weight loss ([5]; 15 mg/kg, 7 days): 8.2%; Plasma cholesterol, % of control values ([5]; 25 mg/kg): 36.7%; Plasma triglycerides, % of control values ([5]; 25 mg/kg): 33.7%; Bodyweight lost ([5]; 25 mg/kg, after day 6, terminated early): 8%; Food consumption ([5]; 15 and 25 mg/kg/day, versus control): dose-related, decreases in food consumption; Plasma glucose, % of control values ([5]; dose not stated): 78.6% |
| O=C(O)C(F)(F)C(F)(F)C(F)(F)C(F)(F)C(F)(F)C(F)(F)F [PFHA, Perfluoroheptanoic acid] | 0.45 ± 0.28 fold | 0.573 mM | – | 0.371 mM | 0.2 to 0.6 mM | 1.50 ± 0.23 mmol/L | 16.43 ± 2.59 mmol/L | 114.2 ± 90.06 ng/mL | 0.94 ± 0.20 mmol/L | – | 1.46 ± 0.17 mmol/L | 18.15 ± 2.78 mmol/L | 165.1 ± 114.4 ng/mL | 0.75 ± 0.26 mmol/L | – | – | 0.321 mM | 2.2 | 30 fold | 99 µM | Fold activation of PPAR gamma (PPAR gamma; [13]): 3.43 ± 2.62 fold |
| O=C(O)C(F)(F)C(F)(F)F [PFPA, Perfluropropionic acid] | 0.63 ± 0.25 fold | – | – | – | – | 1.28 ± 0.10 mmol/L | 15.46 ± 1.13 mmol/L | 129 ± 36.05 ng/mL | 1.02 ± 0.38 mmol/L | – | 1.39 ± 0.39 mmol/L | 14.97 ± 1.29 mmol/L | 179.7 ± 177.1 ng/mL | 0.95 ± 0.17 mmol/L | lost bodyweight after day 3 | 1.86 ± 0.81 fold | – | 1.6 | – | – | IC50 [1]: > 3 mM; Kd ([7]; read-out: PPAR Receptor Binding Kd Alpha (apparent Kd)): 2 µM; IC50 [3]: > 3 mM; IC50 [4]: ~3 mM; Reduction in binding affinity for PPAR gamma compared to PFOA [8]: ~2 fold; Kd ([8]; read-out: PPAR Receptor Binding Kd Gamma (apparent Kd), cis-parinaric acid displacement): 0.6 µM; IC50 ([6]; 48 hours exposure): > 3 mM |
| O=C(O)C(F)(F)C(F)(F)C(F)(F)C(F)(F)F [PFPenA, Perfluoropentanoic acid] | 0.45 ± 0.04 fold | > 3 mM | – | > 3 mM | ~3 mM | 1.83 ± 0.41 mmol/L | 16.22 ± 1.29 mmol/L | 124.7 ± 126.3 ng/mL | 1.24 ± 0.04 mmol/L | 33.9% | 1.67 ± 0.20 mmol/L | 16.67 ± 0.93 mmol/L | 62.6 ± 68.26 ng/mL | 1.07 ± 0.37 mmol/L | – | – | 2.63 mM | 2.2 | 10 fold | 17 µM | Kd ([7]; PPAR Receptor Binding Kd Alpha (apparent Kd)): 62 µM; Reduction in binding affinity for PPAR gamma compared to PFOA [8]: approximately 50 fold; Fold activation of PPAR gamma (PPAR gamma; [13]): 5.07 ± 2.29 fold |
| N.O=C(O)C(F)(F)C(F)(F)C(F)(F)C(F)(F)C(F)(F)C(F)(F)C(F)(F)F [XEN1001, Ammoniumperfluorooctanoate] | – | – | equimolar concentrations of PFOA | – | – | – | – | – | – | – | – | – | – | – | – | – | – | – | – | – | Lost bodyweight up to day [9]: 7 days |
